Source: patent publication US20210236497A1 (priority 2020, published 2021)
Counter-ions that a name gives are not always drawn. Like-named read-outs stand apart in the source and are kept apart here.

Legend:
[1] = mice; following 12 days post injection; cited from earlier work
[2] = cited from earlier work; for Observed toxic effect: humans
[3] = system: nCoV-2019 (SARS-CoV2) infected Vero E6 cells; assay: microbe, parasite or virus in culture; type: cell-based, SARS-CoV-2; details: for inhibition at 0.075 µM: Severe acute respiratory syndrome coronavirus 2, Vero C1008, 0.075 μM
[4] = African green monkeys; 1.6 mg/kg x 14 days; total dose 22.4; cited from earlier work
[5] = Rats; total of multi dose; cited from earlier work

For NC(=O)c1cn([C@@H]2O[C@H](CO)[C@@H](O)[C@H]2O)c2ncnc(N)c12 [Oya1, 4-amino-7-((2R,3R,4S,5R)-3,4-dihydroxy-5-(hydroxymethyl)tetrahydrofuran-2-yl)-7H-pyrrolo[2,3-d]pyrimidine-5-carboxamide], the amount cleared [1] is listed as 40%, the anti-cancer activity ([2]; Phase I clinical trials during the 1960's) is listed as “inactive against cancer” and the tolerability in humans ([2]; Phase I clinical trials, dosing levels of Table 8) is listed as “well tolerated”. For the same compound, the Observed toxic effect ([2]; daily, highest dosing regimen 120 μg/kg/day x 41 days) was 0, the Observed toxic effect ([2]; thrice weekly, highest dosing regimen 50-250 μg/kg/day x 45 days) was 0 and the Observed toxic effect ([2]; weekly, highest dosing regimen 200 μg/kg/day x 150 days) was 0. The “average toxicity margin or selectivity index” value [3] was 4.8, the “toxicity margin or selectivity index, high” value [3] was 8.2 and the “toxicity margin or selectivity index, low” value [3] was 3.1. The “fold increase in activity for Oya1 over chlorpromazine HCl” value ([3]; MOI 0.6, FIG. 4 and FIG. 5) was 1000 fold, the “fold increase in activity for Oya1 over chlorpromazine HCl” value ([3]; MOI 1.3, FIG. 8 and FIG. 9) was 1000 fold and the inhibition at 0.075 µM ([3]; MOI 0.6 Plate 1) was 95.5%. For the same compound, the inhibition at 0.075 µM ([3]; MOI 0.6 Plate 2) was 91.9%, the inhibition at 0.075 µM ([3]; Plate 1) was 93.8% and the inhibition at 0.075 µM ([3]; Plate 2) was 99.4%. For the same compound, the Effect [4] was “lethal” and the “LD50, total dose” value [5] was 1.2 mg/kg.
Compound NC(=O)c1cn([C@@H]2O[C@H](CO)[C@@H](O)[C@H]2O)c2ncnc(N)c12 [Oya2, 4-amino-7-((2R,3R,4S,5R)-3,4-dihydroxy-5-(hydroxymethyl)tetrahydrofuran-2-yl)-7H-pyrrolo[2,3-d]pyrimidine-5-carboxamide hydrochloride] has an inhibition at 0.0094 µM ([3]; Severe acute respiratory syndrome coronavirus 2, Vero C1008, 0.0094 μM, MOI 0.6 Plate 2, Table 4C) of 33.9%, an inhibition at 0.0375 µM ([3]; Severe acute respiratory syndrome coronavirus 2, Vero C1008, 0.0375 μM, Plate 2, Table 6C) of 12.2% and an inhibition at 0.075 µM ([3]; MOI 0.6 Plate 1, Table 3C) of 45.6%. For the same compound, the inhibition at 0.075 µM ([3]; MOI 0.6 Plate 2, Table 4C) was 83.1% and the inhibition at 0.15 µM ([3]; Severe acute respiratory syndrome coronavirus 2, Vero C1008, 0.15 μM, MOI 0.6 Plate 1, Table 3C) was 90.1%.
